Source: PubChem BioAssay AID652155 (Sanford-Burnham Center for Chemical Genomics, 2013)
Active and inactive are the calls of the source.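 How the source made its calls: active means compounds with mean IC50 of 15 µM or lower in the worm heat shock reporter counterscreen; inactive means the rest.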

The compounds below were run on C. elegans VP596 hsp-16.2 GFP/RFP heat-shock reporter (assay: hsp-16.2 heat-shock reporter inhibition in worms, SAR follow-up, counter-screen for SKN-1 inhibitor project, whole organism, C. elegans VP596, GFP/RFP ratio (AID 652155)).

Row | SMILES | IC50
1 | CCOc1cc(CNC2CCC2)cc(Cl)c1OCc1ccc(F)cc1 | > 64 µM (inactive)
2 | Cc1ccc(-c2csc(-c3ccncc3)n2)cc1 | > 64 µM (inactive)
3 | Fc1ccc(COc2ccc(CNC3CCCC3)cc2Cl)cc1 | > 64 µM (inactive)
4 | CCOc1cc(C(=O)NC2CCCC2)cc(Cl)c1OCc1ccc(F)cc1 | > 64 µM (inactive)
5 | CCOc1cc(CNC2CCCC2)cc(Cl)c1OCc1ccc(C)cc1 | > 64 µM (inactive)
6 | CCOc1cc(CNC2CCCC2)cc(Cl)c1OCc1ccc(OC)cc1 | > 64 µM (inactive)
7 | CCOc1cc(CNC2CCCC2)cc(Cl)c1OCc1cccc(F)c1 | > 64 µM (inactive)
8 | COc1ccc(-c2csc(-c3ccncc3)n2)cc1 | > 64 µM (inactive)
9 | c1ccc(-c2csc(-c3ccncc3)n2)cc1 | > 64 µM (inactive)
10 | CCOc1cc(CNC2CCCC2)cc(Cl)c1OCc1ccc(Cl)cc1 | > 64 µM (inactive)
11 | Fc1ccc(-c2csc(-c3cccnc3)n2)cc1 | > 64 µM (inactive)
12 | CCOc1cc(CNC2CCCC2)cc(Cl)c1OCc1ccccc1Cl | > 64 µM (inactive)
13 | c1ccc(-c2csc(-c3cccnc3)n2)cc1 | > 64 µM (inactive)
14 | Cc1ccc(-c2csc(-c3cccnc3)n2)cc1 | > 64 µM (inactive)
15 | Fc1ccc(-c2csc(-c3ccncc3)n2)cc1 | > 64 µM (inactive)
16 | CCOc1cc(CNc2ccccc2)cc(Cl)c1OCc1ccc(F)cc1 | > 64 µM (inactive)
17 | CCOc1cc(CNCc2ccccc2)cc(Cl)c1OCc1ccc(F)cc1 | > 64 µM (inactive)
18 | Clc1ccc(-c2csc(-c3cccnc3)n2)cc1 | > 64 µM (inactive)
19 | Clc1ccc(-c2csc(-c3ccncc3)n2)cc1 | > 64 µM (inactive)
20 | COc1ccc(-c2csc(-c3cccnc3)n2)cc1 | > 64 µM (inactive)
21 | COc1cc(CNC2CCCC2)cc(Cl)c1OCc1ccc(F)cc1 | > 64 µM (inactive)
22 | CCOc1cc(CNC2CCCC2)ccc1OCc1ccc(F)cc1 | > 64 µM (inactive)
23 | CCOc1cc(CNC2CC2)cc(Cl)c1OCc1ccc(F)cc1 | > 64 µM (inactive)
24 | CCOc1cc(CNC2CCCCC2)cc(Cl)c1OCc1ccc(F)cc1 | > 64 µM (inactive)
25 | CCOc1cc(CNC(C)C)cc(Cl)c1OCc1ccc(F)cc1 | > 64 µM (inactive)
26 | CCOc1cc(CNC2CCCC2)cc(Cl)c1OCc1ccccc1F | > 64 µM (inactive)
27 | CCOc1cc(CNC2CCCC2)cc(Cl)c1OCc1ccc(F)cc1 | > 64 µM (inactive)
28 | CCOc1cc(CNC2CCCC2)cc(Cl)c1OC | > 64 µM (inactive)
